The source of these data is ChEMBL document CHEMBL5154740, “Novel Aurora A and Protein Kinase C (α, β1, β2, and θ) Multitarget Inhibitors: Impact of Selenium Atoms on the Potency and Selectivity” (J Med Chem, 2022).

Experiment [1] addresses T1, Serine/threonine-protein kinase D1 (Homo sapiens) (UniProt Q15139).
T1 sequence (whole entry): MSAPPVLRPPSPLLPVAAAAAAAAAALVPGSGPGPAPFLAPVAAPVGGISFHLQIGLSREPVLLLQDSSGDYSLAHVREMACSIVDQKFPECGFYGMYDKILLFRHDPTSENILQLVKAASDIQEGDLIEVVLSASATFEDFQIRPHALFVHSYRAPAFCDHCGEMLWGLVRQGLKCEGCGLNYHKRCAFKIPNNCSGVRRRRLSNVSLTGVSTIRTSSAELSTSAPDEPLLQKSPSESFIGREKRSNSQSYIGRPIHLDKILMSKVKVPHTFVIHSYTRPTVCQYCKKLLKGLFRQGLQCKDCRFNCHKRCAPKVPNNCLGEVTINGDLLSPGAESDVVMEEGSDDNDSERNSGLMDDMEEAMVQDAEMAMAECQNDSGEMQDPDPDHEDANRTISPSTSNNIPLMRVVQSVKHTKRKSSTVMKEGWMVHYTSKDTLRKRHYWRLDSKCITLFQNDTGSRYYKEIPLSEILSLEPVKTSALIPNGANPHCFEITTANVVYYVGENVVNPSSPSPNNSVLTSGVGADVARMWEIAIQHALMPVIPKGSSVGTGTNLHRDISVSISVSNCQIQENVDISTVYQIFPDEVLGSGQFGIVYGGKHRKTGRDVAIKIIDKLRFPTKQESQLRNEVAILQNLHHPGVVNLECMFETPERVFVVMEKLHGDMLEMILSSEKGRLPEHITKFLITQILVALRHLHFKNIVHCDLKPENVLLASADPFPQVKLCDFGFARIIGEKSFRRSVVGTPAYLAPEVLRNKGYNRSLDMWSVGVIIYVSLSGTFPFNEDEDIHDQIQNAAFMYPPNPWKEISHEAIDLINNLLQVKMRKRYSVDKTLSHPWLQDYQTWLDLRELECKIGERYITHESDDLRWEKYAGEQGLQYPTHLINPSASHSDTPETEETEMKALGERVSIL
Put plainly: Inhibition of PKCmu (unknown origin) at 50 nM by Z'LYTE screening method relative to control.

In experiment [2] the target is Cell division control protein 42 homolog (Homo sapiens) (UniProt P60953). Put plainly: Inhibition of CDC42 delta (unknown origin) at 50 nM by Z'LYTE screening method relative to control.
Cell division control protein 42 homolog (Homo sapiens), sequence (P60953 whole entry, looked up): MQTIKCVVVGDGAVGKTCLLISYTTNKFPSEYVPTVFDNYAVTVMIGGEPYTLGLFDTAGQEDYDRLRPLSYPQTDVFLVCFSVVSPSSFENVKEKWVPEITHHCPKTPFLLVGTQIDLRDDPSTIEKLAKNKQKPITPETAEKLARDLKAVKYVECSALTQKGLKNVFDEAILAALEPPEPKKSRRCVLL
In experiment [3] the target is T2, Aurora kinase A (Homo sapiens) (UniProt O14965).
T2 sequence (whole entry): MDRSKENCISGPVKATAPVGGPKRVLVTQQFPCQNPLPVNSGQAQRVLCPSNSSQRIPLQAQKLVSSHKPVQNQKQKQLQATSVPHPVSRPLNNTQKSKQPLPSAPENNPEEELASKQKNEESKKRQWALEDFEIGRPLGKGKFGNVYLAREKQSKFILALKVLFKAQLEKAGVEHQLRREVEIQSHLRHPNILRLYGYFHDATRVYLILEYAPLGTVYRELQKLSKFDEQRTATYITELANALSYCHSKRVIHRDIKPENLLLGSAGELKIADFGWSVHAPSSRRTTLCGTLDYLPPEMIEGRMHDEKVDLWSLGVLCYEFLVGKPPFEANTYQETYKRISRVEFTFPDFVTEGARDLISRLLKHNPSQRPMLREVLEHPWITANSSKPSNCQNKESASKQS
The experiment can be described thus: Inhibition of AURA (unknown origin) at 50 nM by Z'LYTE screening method relative to control.

The target of experiment [4] is T3, Aurora kinase C (Homo sapiens) (UniProt Q9UQB9).
T3 sequence (whole entry): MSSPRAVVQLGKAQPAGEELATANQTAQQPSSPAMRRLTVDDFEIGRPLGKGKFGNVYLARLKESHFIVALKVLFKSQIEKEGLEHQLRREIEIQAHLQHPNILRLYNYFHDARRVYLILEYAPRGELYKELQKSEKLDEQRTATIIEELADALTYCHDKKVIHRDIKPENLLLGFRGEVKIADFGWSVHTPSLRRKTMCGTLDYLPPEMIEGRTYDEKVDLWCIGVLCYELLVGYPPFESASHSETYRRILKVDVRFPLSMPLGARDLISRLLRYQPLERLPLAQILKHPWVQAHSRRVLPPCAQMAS
Put plainly: Inhibition of AURC (unknown origin) at 50 nM by Z'LYTE screening method relative to control.

Experiment [5] deals with 3-phosphoinositide-dependent protein kinase 1 (Homo sapiens) (UniProt O15530). Put plainly: Inhibition of PDK1 (unknown origin) at 50 nM by Z'LYTE screening method relative to control.
3-phosphoinositide-dependent protein kinase 1 (Homo sapiens), sequence (O15530 whole entry, looked up): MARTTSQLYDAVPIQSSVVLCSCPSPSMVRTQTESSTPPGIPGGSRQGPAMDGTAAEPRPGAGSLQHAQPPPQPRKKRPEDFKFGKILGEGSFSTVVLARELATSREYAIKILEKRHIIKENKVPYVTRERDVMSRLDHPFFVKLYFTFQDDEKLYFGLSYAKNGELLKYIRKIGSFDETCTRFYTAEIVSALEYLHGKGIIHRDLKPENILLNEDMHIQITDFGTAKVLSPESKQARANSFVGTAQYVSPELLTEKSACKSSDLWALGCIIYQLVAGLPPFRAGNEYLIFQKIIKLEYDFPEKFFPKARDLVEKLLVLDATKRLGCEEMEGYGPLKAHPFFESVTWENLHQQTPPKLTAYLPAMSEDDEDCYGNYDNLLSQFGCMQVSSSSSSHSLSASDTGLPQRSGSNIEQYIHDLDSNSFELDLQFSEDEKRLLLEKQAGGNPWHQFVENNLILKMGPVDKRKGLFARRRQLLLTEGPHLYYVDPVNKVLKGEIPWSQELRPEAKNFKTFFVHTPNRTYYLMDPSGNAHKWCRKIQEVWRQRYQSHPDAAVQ
For experiment [6], the target named is cAMP-dependent protein kinase (PKA) (Homo sapiens) (UniProt P22694+P17612+P22612). The experiment can be described thus: Inhibition of PKA (unknown origin) at 50 nM by Z'LYTE screening method relative to control. The experiment is classed as protein assay.
The target of experiment [7] is T4, Serine/threonine-protein kinase Chk1 (Homo sapiens) (UniProt O14757).
T4 sequence (whole entry): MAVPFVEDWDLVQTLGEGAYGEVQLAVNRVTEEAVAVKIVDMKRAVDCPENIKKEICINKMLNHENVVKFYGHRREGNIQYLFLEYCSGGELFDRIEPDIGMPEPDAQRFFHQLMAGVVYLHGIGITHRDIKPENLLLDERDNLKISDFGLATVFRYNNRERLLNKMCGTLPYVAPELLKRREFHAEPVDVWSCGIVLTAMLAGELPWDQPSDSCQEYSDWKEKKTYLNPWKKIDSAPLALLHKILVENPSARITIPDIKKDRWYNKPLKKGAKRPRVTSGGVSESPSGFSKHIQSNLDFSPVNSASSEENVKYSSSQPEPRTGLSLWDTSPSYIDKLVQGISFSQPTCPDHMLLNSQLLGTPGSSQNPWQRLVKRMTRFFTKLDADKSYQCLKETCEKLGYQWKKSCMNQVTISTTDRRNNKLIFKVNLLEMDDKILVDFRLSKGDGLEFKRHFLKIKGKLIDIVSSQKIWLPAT
The experiment can be described thus: Inhibition of CHK1 (unknown origin) at 50 nM by Z'LYTE screening method relative to control.

Experiment [8] addresses Mast/stem cell growth factor receptor Kit (Homo sapiens) (UniProt P10721). Put plainly: Inhibition of KIT (unknown origin) at 50 nM by Z'LYTE screening method relative to control.
The target of experiment [9] is Platelet-derived growth factor receptor alpha (Homo sapiens) (UniProt P16234). Put plainly: Inhibition of PDGFRalpha (unknown origin) at 50 nM by Z'LYTE screening method relative to control.
Platelet-derived growth factor receptor alpha (Homo sapiens), sequence (P16234 whole entry): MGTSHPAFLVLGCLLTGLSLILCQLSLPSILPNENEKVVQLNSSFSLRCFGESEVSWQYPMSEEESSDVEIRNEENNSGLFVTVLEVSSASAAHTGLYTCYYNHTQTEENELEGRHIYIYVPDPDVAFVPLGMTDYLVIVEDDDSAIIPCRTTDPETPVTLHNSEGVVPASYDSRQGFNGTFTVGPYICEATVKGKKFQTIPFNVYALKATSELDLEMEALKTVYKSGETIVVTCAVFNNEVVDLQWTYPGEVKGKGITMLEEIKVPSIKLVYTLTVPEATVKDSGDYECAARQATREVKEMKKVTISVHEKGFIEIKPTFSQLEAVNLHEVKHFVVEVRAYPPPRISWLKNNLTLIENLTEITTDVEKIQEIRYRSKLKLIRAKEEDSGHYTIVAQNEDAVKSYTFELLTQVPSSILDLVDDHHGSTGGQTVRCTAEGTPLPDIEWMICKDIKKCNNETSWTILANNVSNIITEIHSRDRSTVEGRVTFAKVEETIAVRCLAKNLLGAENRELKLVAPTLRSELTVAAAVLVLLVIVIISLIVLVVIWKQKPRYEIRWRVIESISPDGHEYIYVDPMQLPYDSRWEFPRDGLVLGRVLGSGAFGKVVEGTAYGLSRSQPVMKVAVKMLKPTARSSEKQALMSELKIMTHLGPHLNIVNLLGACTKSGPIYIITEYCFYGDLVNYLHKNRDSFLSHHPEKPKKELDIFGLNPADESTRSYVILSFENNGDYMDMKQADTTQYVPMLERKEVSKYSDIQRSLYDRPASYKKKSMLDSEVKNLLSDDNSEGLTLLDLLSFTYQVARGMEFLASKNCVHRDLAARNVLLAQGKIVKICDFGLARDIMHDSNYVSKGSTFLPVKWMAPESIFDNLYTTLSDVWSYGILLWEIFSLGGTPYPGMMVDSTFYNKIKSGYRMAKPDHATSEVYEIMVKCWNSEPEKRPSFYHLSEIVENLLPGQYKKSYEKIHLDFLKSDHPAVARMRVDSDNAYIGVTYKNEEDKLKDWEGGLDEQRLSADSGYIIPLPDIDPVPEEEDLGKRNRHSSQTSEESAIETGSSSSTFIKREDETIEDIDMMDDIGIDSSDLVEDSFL
The target in experiment [10] is Calcium/calmodulin-dependent protein kinase type 1D (Homo sapiens) (UniProt Q8IU85). The experiment can be described thus: Inhibition of CAMK1 delta (unknown origin) at 50 nM by Z'LYTE screening method relative to control.
Calcium/calmodulin-dependent protein kinase type 1D (Homo sapiens), sequence (Q8IU85 whole entry, looked up): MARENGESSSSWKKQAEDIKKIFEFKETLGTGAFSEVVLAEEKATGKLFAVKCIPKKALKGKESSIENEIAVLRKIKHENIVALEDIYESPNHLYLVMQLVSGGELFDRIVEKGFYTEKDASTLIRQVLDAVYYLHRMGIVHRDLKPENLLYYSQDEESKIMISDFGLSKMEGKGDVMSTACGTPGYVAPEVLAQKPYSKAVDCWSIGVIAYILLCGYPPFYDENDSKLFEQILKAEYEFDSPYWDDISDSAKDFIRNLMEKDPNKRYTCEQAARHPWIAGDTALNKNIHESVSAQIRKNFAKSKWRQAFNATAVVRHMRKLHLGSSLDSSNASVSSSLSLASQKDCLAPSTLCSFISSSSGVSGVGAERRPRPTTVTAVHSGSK
In experiment [11] the target is Cyclin-dependent kinase 5/CDK5 activator 1 (Homo sapiens) (UniProt Q00535+Q15078). The experiment can be described thus: Inhibition of CDK5/p35 (unknown origin) at 50 nM by Z'LYTE screening method relative to control. The format is protein-complex assay.
Cyclin-dependent kinase 5/CDK5 activator 1 (Homo sapiens), sequence (Q00535 whole entry): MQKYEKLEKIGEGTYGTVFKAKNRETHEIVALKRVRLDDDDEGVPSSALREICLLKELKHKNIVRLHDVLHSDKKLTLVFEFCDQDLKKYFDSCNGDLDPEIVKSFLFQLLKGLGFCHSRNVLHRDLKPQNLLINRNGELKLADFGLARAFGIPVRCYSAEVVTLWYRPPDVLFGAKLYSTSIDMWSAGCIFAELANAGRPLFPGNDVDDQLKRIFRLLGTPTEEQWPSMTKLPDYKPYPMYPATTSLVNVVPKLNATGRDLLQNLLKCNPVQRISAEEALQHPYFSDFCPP
Cyclin-dependent kinase 5/CDK5 activator 1 (Homo sapiens), sequence (Q15078 99-307 partner limits assumed): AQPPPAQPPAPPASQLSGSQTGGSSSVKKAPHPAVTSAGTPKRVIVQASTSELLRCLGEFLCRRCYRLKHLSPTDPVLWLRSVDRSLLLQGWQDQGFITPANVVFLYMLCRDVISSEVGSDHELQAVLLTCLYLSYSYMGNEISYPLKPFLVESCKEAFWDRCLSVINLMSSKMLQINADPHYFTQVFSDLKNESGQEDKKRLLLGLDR

Mast/stem cell growth factor receptor Kit (Homo sapiens), sequence (P10721 whole entry): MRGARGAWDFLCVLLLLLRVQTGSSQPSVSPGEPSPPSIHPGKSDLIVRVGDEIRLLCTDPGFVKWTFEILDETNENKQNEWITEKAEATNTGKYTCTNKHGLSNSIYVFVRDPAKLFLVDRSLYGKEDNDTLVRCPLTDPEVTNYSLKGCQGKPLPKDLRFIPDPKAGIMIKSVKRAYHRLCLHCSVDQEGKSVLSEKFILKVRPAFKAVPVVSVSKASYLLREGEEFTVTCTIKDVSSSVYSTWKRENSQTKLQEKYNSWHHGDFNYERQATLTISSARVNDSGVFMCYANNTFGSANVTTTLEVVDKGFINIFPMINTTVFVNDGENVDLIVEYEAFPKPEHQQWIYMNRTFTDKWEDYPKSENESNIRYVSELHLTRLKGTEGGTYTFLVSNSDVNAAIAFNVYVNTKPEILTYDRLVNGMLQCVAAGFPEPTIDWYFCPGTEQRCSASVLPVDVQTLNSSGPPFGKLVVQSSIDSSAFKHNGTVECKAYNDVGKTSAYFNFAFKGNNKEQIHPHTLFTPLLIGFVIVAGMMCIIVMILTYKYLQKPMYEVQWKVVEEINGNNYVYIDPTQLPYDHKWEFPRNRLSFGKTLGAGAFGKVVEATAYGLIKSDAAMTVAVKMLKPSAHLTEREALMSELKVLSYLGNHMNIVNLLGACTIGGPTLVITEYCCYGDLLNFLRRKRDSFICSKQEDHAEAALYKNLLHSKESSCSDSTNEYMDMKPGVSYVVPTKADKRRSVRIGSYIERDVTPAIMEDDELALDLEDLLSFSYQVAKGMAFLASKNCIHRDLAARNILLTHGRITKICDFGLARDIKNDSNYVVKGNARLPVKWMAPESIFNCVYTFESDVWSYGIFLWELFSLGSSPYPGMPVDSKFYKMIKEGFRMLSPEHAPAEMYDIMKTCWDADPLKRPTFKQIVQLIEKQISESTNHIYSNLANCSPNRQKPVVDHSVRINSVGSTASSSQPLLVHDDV

A word on the inhibition: it is the share of the control response that was lost under treatment. Turning to `O=c1c2ccccc2[se]n1-c1nc(N[C@@H]2C[C@H]3CC[C@@H]2C3)c2nc[nH]c2n1`, the inhibition in [1] came to 2%; in experiment [2], 0%; in experiment [3], 4%; in experiment [4] it was 9%.
For the compound `O=c1c2ccccc2[se]n1-c1nc(NC2CCCCC2)c2nc[nH]c2n1`, the inhibition in [5] turned out to be 0%; in [6], 22%; in experiment [7], 0%; in experiment [1], 5%; in experiment [2], 0%; in experiment [8] it was 1%. The inhibition in [9] was found to be 16%; in experiment [3], 84%; in experiment [4], 13%; in experiment [10], 1%; in experiment [11] it was 2%.
For `CCN(CC)CCCC(C)Nc1nc(-n2[se]c3ccccc3c2=O)nc2[nH]cnc12` (centres undefined), the inhibition in experiment [1] is 4%; in [2], 0%; in experiment [3] it was 9%; in [4], 7%.
As for `O=c1c2ccccc2[se]n1-c1nc(Nc2ccccc2)c2nc[nH]c2n1`, the inhibition worked out at 3% in [1], 0% in experiment [2], 6% in experiment [3] and 6% in experiment [4].
For `O=c1c2ccccc2[se]n1-c1nc(N[C@H]2CCOC2)c2nc[nH]c2n1`, the inhibition stood at 0% in [1], 0% in experiment [2], 71% in experiment [3] and 1% in experiment [4].
With `O=C1c2ccccc2CN1c1nc(NC2CCCCC2)c2nc[nH]c2n1`, the inhibition in experiment [5] was 0%; in [6], 12%; in [7], 0%; in [1], 6%; in [2], 0%; in experiment [8], 1%. For the same compound, the inhibition in [9] is 11%; in experiment [3], 4%; in [4], 9%; in experiment [10] it was 0%; in [11], 2%.
Consider `O=C1c2ccccc2CN1c1nc(N[C@H]2CC[Se]C2)c2nc[nH]c2n1`, for which the inhibition was 1% in experiment [1], 0% in experiment [2], 9% in [3] and 13% in experiment [4].
The corresponding values for `CCN(CC)CCCC(C)Nc1nc(N2Cc3ccccc3C2=O)nc2[nH]cnc12` (centres undefined) are 0%, 0%, 3% and 10%.
In the case of `C[C@@H]1[C@H]2C[C@@H](C[C@H]1Nc1nc(-n3[se]c4ccccc4c3=O)nc3[nH]cnc13)C2(C)C`, the inhibition in [1] turned out to be 1%; in [2], 0%; in [3], 3%; in experiment [4], 11%.
Regarding `O=C1c2ccccc2CN1c1nc(NC2CCCC2)c2nc[nH]c2n1`, the inhibition in [1] amounted to 1%; in experiment [2], 0%; in experiment [3] it was 1%; in experiment [4], 1%.
On to `CCCNc1nc(-n2[se]c3ccccc3c2=O)nc2[nH]cnc12`, for which the inhibition in experiment [1] amounted to 0%; in experiment [2], 1%; in experiment [3], 4%; in experiment [4], 6%.
Take `O=c1c2ccccc2[se]n1-c1nc(N[C@H]2CC[Se]C2)c2nc[nH]c2n1`: the inhibition worked out at 0% in [5]; 53% in [6]; 4% in [7]; 7% in experiment [1]; 0% in experiment [2]; 2% in experiment [8]. Moreover, the inhibition in [9] was found to be 1%; in [3] it was 87%; in experiment [4] it was 0%; in [10] it was 5%; in experiment [11] it was 1%.
